details: topical or ocular, 5 microgram per mL
Protocol: Liver microsomal stability assays were conducted at 1 mg per mL liver microsome protein with an NADPH-generating system in 2% NaHCO3 (2.2 mM NADPH, 25.6 mM glucose 6-phosphate, 6 units per mL glucose 6-phosphate dehydrogenase and 3.3 mM MgCl2). Test compounds were prepared as solutions in 20% acetonitrile-water and added to the assay mixture (final assay concentration 5 microgram per mL) and incubated at 37° C. Final concentration of acetonitrile in the assay should be <1%. Aliquots (50 μL) were taken out at times 0, 15, 30, 45, and 60 minutes, and diluted with ice cold acetonitrile (200 μL) to stop the reactions. Samples were centrifuged at 12000 RPM for 10 minutes to precipitate proteins. Supernatants were transferred to microcentrifuge tubes and stored for LC/MS/MS analysis of the degradation half-life of the test compounds.

Increase in the degradation half-life as compared to the non-isotopically enriched drug (clarithromycin), 10-400%:
[2H]C([2H])([2H])O[C@]1(C)C[C@@H](C)C(=O)[C@H](C)[C@@H](O)[C@](C)(O)[C@@H](CC)OC(=O)[C@H](C)[C@@H](O[C@H]2C[C@@](C)(OC)[C@@H](O)[C@H](C)O2)[C@H](C)[C@H]1O[C@@H]1O[C@H](C)C[C@H](N(C)C)[C@H]1O [Example 8, d3-6-O-Methyl-Erythromycin A (d3-clarithromycin)]
[2H]C([2H])([2H])N(C)[C@H]1C[C@@H](C)O[C@@H](O[C@@H]2[C@@H](C)[C@H](O[C@H]3C[C@@](C)(OC)[C@@H](O)[C@H](C)O3)[C@@H](C)C(=O)O[C@H](CC)[C@@](C)(O)[C@H](O)[C@@H](C)C(=O)[C@H](C)C[C@@]2(C)OC)[C@@H]1O [Example 12, d3-6-O-Methyl-Erythromycin A (d3-clarithromycin)]
[2H]C([2H])([2H])O[C@]1(C)C[C@@H](C)C(=O)[C@H](C)[C@@H](O)[C@](C)(O)[C@@H](CC)OC(=O)[C@H](C)[C@@H](O[C@H]2C[C@@](C)(OC)[C@@H](O)[C@H](C)O2)[C@H](C)[C@H]1O[C@@H]1O[C@H](C)C[C@H](N(C)C([2H])([2H])[2H])[C@H]1O [Example 11, d6-6-O-Methyl-Erythromycin A (d6-clarithromycin)]

From patent publication US20070281894A1, “PREPARATION AND UTILITY OF SUBSTITUTED ERYTHROMYCIN ANALOGS” (Auspex Pharmaceuticals, Inc., priority 2006, published 2007)
